Measured values as given in patent US20230139826A1 (NONO INC., priority 2020, published 2023).
Marks after values point to notes of the source that are not given here. Residues, ends and D or L forms follow the SMILES beside them.

System: acute ischemic stroke
Assay: ESCAPE-NA1 trial: efficacy of intravenous nerinetide in patients with acute ischemic stroke undergoing thrombectomy
Format: in vivo, human
Method: ESCAPE-NA1 was a multicenter, randomized, double-blinded, placebo-controlled, parallel group, single-dose study to determine the efficacy and safety of intravenous nerinetide in patients with acute ischemic stroke who were selected to undergo thrombectomy. Patients were randomized in a 1:1 ratio to receive a single, 2.6 mg/kg (up to a maximum dose of 270 mg) intravenous dose of nerinetide or saline placebo delivered over 10+1 minutes. Nerinetide and placebo were prepared as colorless solutions in numbered, refrigerated vials.
Randomization in a 1:1 ratio to nerinetide or placebo occurred using a real-time, dynamic, Internet-based, stratified randomized minimization procedure. Stratification occurred on the use of intravenous alteplase (yes/no) and declared initial thrombectomy device (stent-retriever or aspiration device). The choice to stratify was based upon the possibility of drug-drug or drug-device interactions. Randomized minimization occurring within strata aimed to achieve distribution balance with regard to age, sex, baseline National Institutes of Health Stroke Scale (NIHSS) score (range, 0 to 42, with higher scores indicating greater stroke severity), site of arterial occlusion, baseline Alberta Stroke Program Early Computed Tomography Score (ASPECTS; range, 0 to 10, with 1 point subtracted for any evidence of early ischemic change in each defined region on the CT scan) and clinical site.
Eligible patients were adults aged 18 or greater with a disabling ischemic stroke at the time of randomization (baseline NIHSS>5), who had been functioning independently in the community (Barthel Index score>90 [range, 0 to 100, with higher scores indicating a greater ability to complete activities of daily living])^1 before the stroke. Enrollment occurred up to 12 hours after the onset of stroke symptoms (last-seen-well time). Non-contrast CT and multiphase CTA were performed at the thrombectomy center to identify patients with a confirmed proximal intracranial artery occlusion, defined as the intracranial internal carotid artery or the first segment of the middle cerebral artery or both.
After qualifying imaging, patients were treated with rapid EVT using currently available devices. Some patients received intravenous alteplase according to usual care following national or regional guidelines, before or during EVT, at a primary hospital prior to transfer or at the endovascular center. Interpretation of treatment guidelines was at the discretion of the treating team. Patients treated with alteplase more than 4.5 hours from stroke onset were not excluded from the trial for this reason alone. Patients had to meet inclusion and exclusion criteria at the EVT hospital. Patients received trial drug, as a single dose of 2.6 mg/kg to a maximum dose of 270 mg, based upon estimated or actual weight (if known) using a dedicated intravenous line. The trial drug was administered as soon as possible after randomization.
Time targets were imaging to randomization 30 minutes, imaging to study drug administration ≤60 minutes, and imaging to arterial access/puncture ≤60 minutes. Targets from imaging to reperfusion were 90th percentile ≤90 minutes and a median at ≤75 minutes. In general, the order of events was imaging to determine eligibility for EVT treatment, study randomization, administration of alteplase (in some patients), administration of nerinetide, and performance of EVT.
The primary outcome was good outcome as defined by a score of 0-2 on the modified Rankin scale (mRS) (range, 0 [no symptoms] to 6 [death]) for the assessment of neurologic functional disability^2 assessed in person or, if an in-person visit was not possible, by telephone, at 90 days after randomization by personnel certified in the scoring of the mRS. […]

[1] = Alteplase stratum, nerinetide n = 330
[2] = No Alteplase stratum, nerinetide n = 219
[3] = No Alteplase stratum, nerinetide n = 219, missing imputed as deaths
[4] = all patients (ITT), nerinetide vs placebo, 90 days
[5] = all patients, nerinetide group n = 549, 90 days
[6] = all patients, nerinetide vs placebo

Question: Which results are given for CC[C@H](C)[C@H](NC(=O)[C@H](CO)NC(=O)[C@H](CO)NC(=O)[C@H](CC(C)C)NC(=O)[C@H](CCCCN)NC(=O)[C@H](CCCN=C(N)N)NC(=O)[C@H](CCCN=C(N)N)NC(=O)[C@H](CCCN=C(N)N)NC(=O)[C@H](CCC(N)=O)NC(=O)[C@H](CCCN=C(N)N)NC(=O)[C@H](CCCN=C(N)N)NC(=O)[C@H](CCCCN)NC(=O)[C@H](CCCCN)NC(=O)[C@H](CCCN=C(N)N)NC(=O)CNC(=O)[C@@H](N)Cc1ccc(O)cc1)C(=O)N[C@@H](CCC(=O)O)C(=O)N[C@@H](CO)C(=O)N[C@@H](CC(=O)O)C(=O)N[C@H](C(=O)O)C(C)C [Nerinetide] (H-YGRKKRRQRRRKLSSIESDV-OH)?
Answer: BI 95-100, unadjusted RR (CI95) (Alteplase stratum): 0.96 (0.86-1.07); Deaths without imputation, RR (Alteplase stratum): 1.24; Infarct volume (cubic root transformation), beta coefficient (Alteplase stratum): 0.20 (−0.56 to 0.95)** ml^1/3; Infarct volume (median) (Alteplase stratum): 22.7 mL; Mortality, unadjusted RR (CI95) (Alteplase stratum): 1.14 (0.74-1.76); NIHSS 0-2, unadjusted RR (CI95) (Alteplase stratum): 0.92 (0.81-1.04); mRS 0-1, unadjusted RR (CI95) (Alteplase stratum): 0.92 (0.77-1.10); mRS 0-2, unadjusted RR (CI95) (Alteplase stratum): 0.96 (0.85-1.07); BI 95-100, adjusted risk ratio (95% confidence interval) (Alteplase stratum (n = 659)): 0.97 (0.88-1.08); Mortality, adjusted risk ratio (95% confidence interval) (Alteplase stratum (n = 659)): 1.08 (0.70-1.66); NIHSS 0-2, adjusted risk ratio (95% confidence interval) (Alteplase stratum (n = 659)): 0.92 (0.82-1.04); mRS 0-1, adjusted risk ratio (95% confidence interval) (Alteplase stratum (n = 659)): 0.91 (0.78-1.08); mRS 0-2, adjusted risk ratio (95% confidence interval) (Alteplase stratum (n = 659), nerinetide vs placebo, 90 days): 0.97 (0.87-1.08); mRS 0-2, adjusted risk ratio (95% confidence interval) (Alteplase stratum (n = 659), nerinetide vs placebo, 90 days, listed as nerinetide): 0.97; BI 95-100, patients number (proportion) [1]: 213 (64.5%); Mortality, patients number (proportion) [1]: 39 (11.8%); NIHSS 0-2, patients number (proportion) [1]: 191 (57.9%); mRS 0-1, patients number (proportion) [1]: 138 (41.8%); mRS 0-2, patients number (proportion) [1]: 207 (62.7%); mRS 0-2, patients number (proportion) (Alteplase stratum, nerinetide n = 330, listed as nerinetide): 62.7%; Infarct volume, absolute volume difference of medians (Alteplase stratum, nerinetide vs placebo): 1.6* ml; BI 95-100, unadjusted RR (CI95) (No Alteplase stratum): 1.16 (0.98-1.38); Deaths without imputation, RR (No Alteplase stratum): 0.60; Infarct volume (cubic root transformation), beta coefficient (No Alteplase stratum): −0.98 (−1.91 to −0.05)** ml^1/3; Infarct volume (median) (No Alteplase stratum): 26.7 mL; Mortality, unadjusted RR (CI95) (No Alteplase stratum): 0.63 (0.41-0.97); NIHSS 0-2, unadjusted RR (CI95) (No Alteplase stratum): 1.18 (1.00-1.40); mRS 0-1, unadjusted RR (CI95) (No Alteplase stratum): 1.13 (0.88-1.45); mRS 0-2, unadjusted RR (CI95) (No Alteplase stratum): 1.19 (1.01-1.41); BI 95-100, adjusted risk ratio (95% confidence interval) (No Alteplase stratum (n = 446)): 1.14 (0.97-1.34); Mortality, adjusted risk ratio (95% confidence interval) (No Alteplase stratum (n = 446)): 0.66 (0.44-0.99); NIHSS 0-2, adjusted risk ratio (95% confidence interval) (No Alteplase stratum (n = 446)): 1.14 (0.97-1.34); mRS 0-1, adjusted risk ratio (95% confidence interval) (No Alteplase stratum (n = 446)): 1.04 (0.82-1.31); mRS 0-2, adjusted risk ratio (95% confidence interval) (No Alteplase stratum (n = 446), nerinetide vs placebo, 90 days): 1.18 (1.01-1.38); mRS 0-2, adjusted risk ratio (95% confidence interval) (No Alteplase stratum (n = 446), nerinetide vs placebo, 90 days, listed as nerinetide): 1.18; BI 95-100, number of patients [2]: 128; BI 95-100, proportion of patients [2]: (58.4%); NIHSS 0-2, number of patients [2]: 129; NIHSS 0-2, proportion of patients [2]: (58.9%); mRS 0-1, number of patients [2]: 84; mRS 0-1, proportion of patients [2]: (38.4%); mRS 0-2, number of patients [2]: 130; mRS 0-2, proportion of patients [2]: (59.3%); Mortality, number of patients [3]: 28; Mortality, proportion of patients [3]: (12.8%); mRS 0-2, proportion of patients (No Alteplase stratum, nerinetide n = 219, listed as nerinetide): 59.3%; Infarct volume, absolute volume difference of medians (No Alteplase stratum, nerinetide vs placebo): −12.5* ml; mRS 0-2, adjusted risk ratio (95% confidence interval) (all patients (ITT), nerinetide 2.6 mg/kg iv vs placebo, 90 days): 1.04 (0.96-1.14); mRS 0-2, adjusted risk ratio (95% confidence interval) (all patients (ITT), nerinetide 2.6 mg/kg iv vs placebo, 90 days, listed as nerinetide): 1.04; BI 95-100, adjusted risk ratio (95% confidence interval) [4]: 1.03 (0.94-1.12); Mortality, adjusted risk ratio (95% confidence interval) [4]: 0.84 (0.63-1.13); NIHSS 0-2, adjusted risk ratio (95% confidence interval) [4]: 1.01 (0.92-1.11); mRS 0-1, adjusted risk ratio (95% confidence interval) [4]: 0.98 (0.85-1.12); Infarct volume (median) (all patients, 24-hour imaging): 23.7 mL; Infarct volume (median) (all patients, 24-hour imaging, listed as nerinetide): 26.0 (iqr 6.6-101.5) ml; BI 95-100, patients number (proportion) [5]: 341 (62.1%); NIHSS 0-2, patients number (proportion) [5]: 320 (58.3%); mRS 0-1, patients number (proportion) [5]: 222 (40.4%); mRS 0-2, patients number (proportion) [5]: 337 (61.4%); Mortality, patients number (proportion) (all patients, nerinetide group n = 549, 90 days, missing outcomes imputed as deaths): 67 (12.2%); mRS 0-2, patients number (proportion) (all patients, nerinetide group n = 549, 90 days, listed as nerinetide): 61.4%; Infarct volume (cubic root transformation), adjusted beta coefficient (all patients, nerinetide vs control, 24-hour imaging): −0.29 (−0.87 to 0.30)** ml^1/3; BI 95-100, unadjusted RR (CI95) [6]: 1.03 (0.94-1.13); Deaths without imputation, RR [6]: 0.87; Infarct volume, absolute volume difference of medians [6]: −2.3* ml; NIHSS 0-2, unadjusted RR (CI95) [6]: 1.01 (0.92-1.12); mRS 0-1, unadjusted RR (CI95) [6]: 0.99 (0.86-1.15); mRS 0-2, unadjusted RR (CI95) [6]: 1.04 (0.94-1.14); Mortality, unadjusted RR (CI95) (all patients, nerinetide vs placebo, missing imputed as deaths): 0.85 (0.63-1.15); Infarct volume, mean (alteplase group): 73.3 mL; Infarct volume, mean (no alteplase group): 67.8 mL; Number-needed-to-treat (no-alteplase stratum): 10-11 patients; absolute benefit (no-alteplase stratum): 9.4%; absolute risk reduction in mortality at 90 days (stratum that did not receive alteplase): 7.5%; hazard of death, adj HR (stratum that did not receive alteplase, Cox model): 0.56
